{"source": "patent US9840483B2", "about": "“Radiomitigating pharmaceutical formulations” (The Regents of the University of California, priority 2013, dated 2017)", "key": {"[1]": {"tested_on": "Til-1 murine lymphocyte cells", "assay": "Mitigation of radiation-induced apoptosis in vitro: viability of irradiated Til-1 cells (ATPlite) screen", "type": "cell-based", "conditions": "Mus musculus, light or radiation study, added 1 hour after 2 Gy, viability 24 h after radiation, relative to control irradiated value (100%), read-out: In Vitro (Mitigation cell viability %)", "method": "The ability of compounds from Example 1 to mitigate radiation-induced apoptosis in vitro relative to control values (100%) is shown in FIG. 1. Briefly, 100,000 small-molecules were screened at 10 μM final concentration in 1% dimethylsulfoxide (DMSO) using the viability of a murine lymphocyte line as a readout (Mitigation cell viability %). Ten thousand Til-1 murine lymphocyte cells were dispensed into each well of 384-well plates using a Multidrop 384 (Thermo Scientific, Waltham, Mass.) The Til-1 cells were irradiated at the dose of 2 Gy. After 1 hour, the small-molecules were added. Twenty-four hours after the radiation, cell viability was assayed by luminesce-based measurement of ATP production (ATPlite, Perkin-Elmer, Waltham, Mass.) with a SpectraMax M5 microplate reader (Molecular Devices, Sunnyvale, Calif.). The Z′ factor for the assay was >0.5. See Zhang, J. H., Chung, T. D., Oldenburg, K. R. “A Simple Statistical Parameter for Use in Evaluation and Validation of High Throughput Screening Assays,” J Biomol Screen 4:67, 1999. A positive readout was >130% of the control irradiated value."}, "[2]": {"tested_on": "Lewis lung (LLC) tumor lung colonies", "assay": "Lewis lung (LLC) model of artificial metastasis", "type": "in vivo, mice", "method": "The Lewis lung (LLC) model of artificial metastasis was used to test the effects of the drug on the growth of tumor lung colonies in vivo and on radiation response. This was chosen because it is easy to see any drug effects on growth promotion and radioprotection in multiple tumors simultaneously. Specifically, C57Bl/6 mice and C3H mice were injected intravenously with 5×10^4 tumor cells. Subcutaneous injections of compound 2 (5355512) were started on day 4 when the tumors were already established in the lung. A daily dose of 20 mg/kg for 5 days was used to bias the experiment in favor of any tumor growth promotion. Local thoracic irradiation (LTI) was started on day 5 with 4 Gy daily doses for 3 days. This is higher than conventional 2 Gy to compensate for the rapid growth of murine tumors, but is still well within the higher ranges used clinically in hypofractionated exposures. The colonies were counted on day 14. […] LTI alone decreased the number of colonies by 40%."}}, "data": [{"smiles": "O=[N+]([O-])c1ccc(S(=O)(=O)N2CCN(c3ccccc3)CC2)cc1", "note": "[Compound 2, 1-[(4-nitrobenzene)sulfonyl]-4-phenylpiperazine]", "values": [{"measurement": "viability at 10 µM", "setting": "[1]", "value": 182, "unit": "%"}, {"measurement": "Number of colonies with LTI plus drug versus LTI alone", "setting": "[2]; 20 mg/kg daily for 5 days plus local thoracic irradiation 4 Gy daily for 3 days from day 5", "value": "not further decreased"}, {"measurement": "Decrease in number of lung tumor colonies", "setting": "[2]; 20 mg/kg subcutaneously daily for 5 days from day 4, colonies counted day 14, P<0.05", "value": 20, "unit": "%"}, {"measurement": "Size of lung tumor colonies", "setting": "[2]; 20 mg/kg subcutaneously daily for 5 days from day 4, day 14", "value": "smaller in size"}]}]}
